Consider 11 compounds from patent US8008260B2, “Methods of protecting against apoptosis using lipopeptides” (Cleveland Clinic Foundation, priority 2005, dated 2011).

Peptide text beside a SMILES is read from it. * marks the point of attachment. Propyl(2R-PamO,3-PamO) = CCCCCCCCCCCCCCCC(=O)OC[C@H](C*)OC(=O)CCCCCCCCCCCCCCC; X1 = CCCCCCCCCCCCCCCC(=O)OCC(C*)OC(=O)CCCCCCCCCCCCCCC

For series [1], the target named is T1, TLR2/TLR6 heterodimer (Homo sapiens, UniProt O60603+Q9Y2C9).
T1 construct: expressed in transfected cells; host or cells: 293 cells
T1 sequence (O60603 21-784): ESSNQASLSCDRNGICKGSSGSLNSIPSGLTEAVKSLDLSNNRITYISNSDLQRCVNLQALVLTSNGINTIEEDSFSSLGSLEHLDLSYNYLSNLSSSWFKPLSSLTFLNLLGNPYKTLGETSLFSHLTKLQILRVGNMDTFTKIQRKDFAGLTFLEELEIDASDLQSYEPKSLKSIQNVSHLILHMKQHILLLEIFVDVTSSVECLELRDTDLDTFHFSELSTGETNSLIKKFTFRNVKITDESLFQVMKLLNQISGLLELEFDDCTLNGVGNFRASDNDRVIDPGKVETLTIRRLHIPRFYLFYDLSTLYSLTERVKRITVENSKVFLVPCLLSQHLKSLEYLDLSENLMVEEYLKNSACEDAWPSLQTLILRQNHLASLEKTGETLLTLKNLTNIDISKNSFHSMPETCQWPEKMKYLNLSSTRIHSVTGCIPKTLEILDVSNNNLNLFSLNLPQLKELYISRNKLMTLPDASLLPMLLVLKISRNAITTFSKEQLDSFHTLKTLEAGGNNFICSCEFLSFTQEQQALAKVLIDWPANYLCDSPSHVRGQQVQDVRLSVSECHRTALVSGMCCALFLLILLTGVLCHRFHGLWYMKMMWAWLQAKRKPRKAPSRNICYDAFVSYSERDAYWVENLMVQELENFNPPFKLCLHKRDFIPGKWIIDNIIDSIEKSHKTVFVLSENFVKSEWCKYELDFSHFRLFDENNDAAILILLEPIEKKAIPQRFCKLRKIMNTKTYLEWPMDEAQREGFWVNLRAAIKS
T1 sequence (Q9Y2C9 32-796): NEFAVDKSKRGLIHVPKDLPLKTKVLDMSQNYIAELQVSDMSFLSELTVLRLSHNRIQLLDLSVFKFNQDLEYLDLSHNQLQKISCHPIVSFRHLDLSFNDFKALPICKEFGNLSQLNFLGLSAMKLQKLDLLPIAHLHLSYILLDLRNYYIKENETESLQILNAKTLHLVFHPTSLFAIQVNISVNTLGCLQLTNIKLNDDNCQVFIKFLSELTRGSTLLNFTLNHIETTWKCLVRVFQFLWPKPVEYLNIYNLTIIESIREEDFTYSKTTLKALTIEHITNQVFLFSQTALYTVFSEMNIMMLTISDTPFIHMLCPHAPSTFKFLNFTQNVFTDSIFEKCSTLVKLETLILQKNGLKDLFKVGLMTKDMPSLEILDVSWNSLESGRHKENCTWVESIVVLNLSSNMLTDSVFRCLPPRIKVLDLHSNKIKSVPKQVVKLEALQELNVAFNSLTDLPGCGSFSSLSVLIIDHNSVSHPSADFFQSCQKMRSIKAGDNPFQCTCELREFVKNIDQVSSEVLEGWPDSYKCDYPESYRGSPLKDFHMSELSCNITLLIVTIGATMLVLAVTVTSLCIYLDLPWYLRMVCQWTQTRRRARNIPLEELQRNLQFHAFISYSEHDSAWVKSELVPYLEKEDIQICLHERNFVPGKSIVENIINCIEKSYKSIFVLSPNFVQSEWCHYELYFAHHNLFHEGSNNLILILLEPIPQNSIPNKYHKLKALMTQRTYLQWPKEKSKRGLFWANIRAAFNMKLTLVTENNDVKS
Nature of the series: NF-κB-dependent reporter activity in 293 cells expressing the TLR2/TLR6 heterodimer. The class given is cell-based. The arrangement: NF-κB activation: scale not given here. The settings on record: for NF-κB activation: in vitro activity, 293 cells expressing TLR2/TLR6; for activation of the NF-κB reporter (in words, compared with CBLB601): 293 cells expressing TLR2/TLR6, various doses. The procedure:
NF-κB-dependent reporter activity was measured in 293 cells that expressed the TLR2/YLR6 heterodimer. […] None of the non-palmitoylated corresponding peptides activated the NF-κB reporter (FIG. 18B). The peptide component of CBLB617 has a (−4) charge, which should prevent it from interacting with negatively charged cell surface markers. […] Table 5 summarizes the in vitro activity and solubility of all the compounds.

The nature of series [2]: Solubility of the lipopeptides.
For series [3], the system named is ICR mice. Description: Radioprotection against total body gamma irradiation (TBI), 30-day survival. The class given is in vivo. The settings on record: for toxicity in combination with radiation: i.m. 24 hours before 10 Gy TBI. An excerpt:
CBLB601, a R-Pam2-lipopeptide with the peptide moiety consisting of C-SKKKK (SEQ ID NO: 8), was selected for more detailed characterization as a radioprotector based upon its ability to activate NF-κB and preliminary in vivo data on radioprotection in NIH-SWISS mice (see Example 2). The objectives of this study were to determine the optimal dose, route of administration, and time of administration of CBLB601 to serve as a protector. ICR female mice of 10-15 weeks of age were used, with 10-15 animals per group or condition.
The optimal intraperitoneal administration schedule of CBLB601 was determined by injecting the compound at different times prior to irradiation. […] Therefore, all of the optimization experiments were performed with 10 Gy of total body irradiation (TBI). A dose of 3 μg of BCLB601/mouse (1/10 NOAEL) was chosen as the starting dose. Thus, 3 μg of CBLB601 was injected i.p. into ICR mice at 0.5 h, 1 h, 6 h, and 24 h or 1 h, 24 h, 48 h, 72 h, 96 h prior to 10 Gy of TBI (as described in Example 1). […] Injection of CBLB601 24 hrs before irradiation clearly yielded the best radioprotection (90-100% 30-day survival). When the compound was administered 48 hrs before irradiation, the radioprotection was ˜30%. Administration of CBLB601 at 1 hr prior to irradiation produced inconsistent results ranging from 80% protection in one experiment (FIG. 5B) to almost no protection (20%) in another experiment (FIG. 5A).
To determine the optimal radioprotective dose of CBLB601, the timing of injection and level of irradiation were kept constant, while the dose of CBLB601 was varied. ICR mice were injected i.p. with 1, 3, 10, 20, or 30 μg of CBLB601/mouse or 0.1, 0.3, 1, 3, 10, or […] 24 hrs prior to irradiation (10 Gy of TBI), and their survival was monitored for 30 days. The best protective dose was 3 μg/mouse, which supported a survival of 100% (FIGS. 6 A and B). […] Thus, the optimal protective dose of CBLB601 was determined to be 3 μg/mouse.
To determine the level of radiation that was protected by CBLB601, radioprotectant-treated and control mice were exposed to increasing levels of TBI. Groups of ICR mice were injected i.p. with either 3 μg CBLB601/mouse or PBS, and then 24 h later they received 10, 11, 12, 13, 14, and 15 Gy doses of TBI. Survival was recorded over 30 days. […] All of the mice irradiated with 10-11 Gy of TBI died between days 12-14 post irradiation, which was typical for death due to hematopoietic failure. All of the mice that received 14-15 Gy of TBI died between days 7-9 post irradiation, which was typical for mortality due to radiation-induced intestinal damage. Mice that were irradiated with 12-13 Gy of TBI died at intermediate times, which was typical for a mixed etiology of radiation-induced mortality. […] To reach a statistically significant 10% difference between control and CBLB601-treated mice, experimental groups of at least 50 mice must be used. Although CBLB601 rescued 100% of mice from 10 Gy of TBI, its protection at 11 Gy of TBI was only 20%. […] This may be indicative of a combined toxicity of the drug and the irradiation.
CBLB601 was administered intramuscularly to determine the optimal route of administration of this compound (especially since this would be the preferred route of administration for humans). […] In another experiment, increasing doses of CBLB601 administered i.m. were tested against 10, 11, and 12 Gy doses of […] (FIG. 9). […] A summary of the dose-dependency of the radioprotection of […] administered i.p. or i.m. 24 h prior to 10 Gy of TBI is shown in FIG. 10.
The optimal schedule of intramuscular administration of CBLB601 was determined by varying the time between drug delivery and irradiation. ICR mice were injected i.m. with 3 μg of CBLB601/mouse 24 h, 6 h, 3 h, and 1 h prior to TBI and +1 h, +3 h after TBI (FIG. 12A), as well as 48 h, 36 h, 24 h, 12 h, and 6 h prior to TBI (FIG. 12B). […]

In series [1], `CCCCCCCCCCCCCCCC(=O)OCC(CSC[C@H](N)C(=O)N[C@@H](Cc1ccccc1)C(=O)N[C@@H](CCC(=O)O)C(=O)N1CCC[C@H]1C(=O)N1CCC[C@H]1C(=O)N1CCC[C@H]1C(=O)N[C@@H](C)C(=O)N[C@H](C(=O)N[C@H](C(=O)N[C@H](C(=O)N[C@@H](CCCCN)C(=O)N[C@@H](CO)C(=O)N[C@@H](CCCCN)C(=O)O)[C@@H](C)O)[C@@H](C)O)[C@@H](C)O)OC(=O)CCCCCCCCCCCCCCC` (some centres unmarked) [CBLB608] (H-C(X1)FEPPPATTTKSK-OH) showed an NF-κB activation of 2. Further, in series [2], the Solubility entry is “Excellent”.
For `CCCCCCCCCCCCCCCC(=O)OCC(CSC[C@H](N)C(=O)NCC(=O)N[C@@H](CO)C(=O)N[C@@H](Cc1c[nH]cn1)C(=O)N[C@@H](Cc1c[nH]cn1)C(=O)N[C@@H](CCSC)C(=O)O)OC(=O)CCCCCCCCCCCCCCC` (some centres unmarked) [CBLB604] (H-C(X1)GSHHM-OH), in that order: 0 and “Poor”.
Taken in the same sequence, the figures for `CCCCCCCCCCCCCCCC(=O)OCC(CSC[C@H](N)C(=O)NCC(=O)N[C@@H](CCC(N)=O)C(=O)N[C@@H](Cc1c[nH]cn1)C(=O)N[C@@H](Cc1c[nH]cn1)C(=O)N[C@@H](CCSC)C(=O)O)OC(=O)CCCCCCCCCCCCCCC` (some centres unmarked) [CBLB603] (H-C(X1)GQHHM-OH) were 0 and “Poor”.
Turning to `CCCCCCCCCCCCCCCC(=O)OC[C@H](CSC[C@H](N)C(=O)NCC(=O)N[C@@H](CCC(=O)O)C(=O)N[C@@H](CCC(=O)O)C(=O)N[C@@H](CC(=O)O)C(=O)N[C@@H](CC(=O)O)C(=O)O)OC(=O)CCCCCCCCCCCCCCC` [CBLB617] (H-C(Propyl(2R-PamO,3-PamO))GEEDD-OH), in series [1], the “activation of the NF-κB reporter (in words, compared with CBLB601)” value (from here on “activation … (in words, compared with CBLB601)”) is “comparable to that of CBLB601” and the NF-κB activation came out at 100. Also, the survival in series [3] (after 13 days, doses of 10-87.5 μg/mouse respectively, 10 Gy TBI) was 7-90%. Also, the visible toxicity result in series [3] (after 13 days, highest dose 87.5 μg/mouse, 10 Gy TBI) is given as “no visible toxicity”. In series [2], the Solubility result is recorded as “Soluble”.
Take `CCCCCCCCCCCCCCCC(=O)OCC(CSC[C@H](N)C(=O)NCC(=O)N[C@@H](CCC(=O)O)C(=O)N[C@H](C(=O)N[C@@H](CC(=O)O)C(=O)N[C@@H](CCCCN)C(=O)N[C@@H](CCC(=O)O)C(=O)NCC(=O)N[C@@H](CCCCN)C(=O)N[C@H](C(=O)N[C@H](C(=O)N[C@@H](CCCNC(=N)N)C(=O)N[C@H](C(=O)N[C@@H](Cc1ccccc1)C(=O)N[C@@H](CC(=O)O)C(=O)N[C@@H](CC(N)=O)C(=O)N[C@@H](CO)C(=O)N[C@@H](Cc1ccccc1)C(=O)O)[C@@H](C)CC)[C@@H](C)CC)[C@@H](C)CC)[C@@H](C)O)OC(=O)CCCCCCCCCCCCCCC` (some centres unmarked) [CBLB611] (H-C(X1)GETDKEGKIIRIFDNSF-OH): the NF-κB activation in series [1] worked out at 0.
For `CCCCCCCCCCCCCCCC(=O)OC[C@H](CSC[C@H](N)C(=O)NCC(=O)N[C@@H](CCC(=O)O)C(=O)N[C@H](C(=O)N[C@@H](CC(=O)O)C(=O)N[C@@H](CCCCN)C(=O)O)[C@@H](C)O)OC(=O)CCCCCCCCCCCCCCC` [CBLB613] (H-C(Propyl(2R-PamO,3-PamO))GETDK-OH), in series [1], the “activation … (in words, compared with CBLB601)” value is given as “comparable to that of CBLN601” and the NF-κB activation is listed as 200. Further, in series [3] (doses of 10, 30 and 82.5 μg/mouse i.m. 24 hours before 10 Gy TBI), the “protection (30-day survival)” value is given as 100%. For the same compound, the “toxicity in combination with radiation” value in series [3] is listed as “non-toxic in combination with the radiation”. In series [3] (mouse, in vivo), the “radioprotector quality compared with CBLB601” value is “significantly better radioprotectors than CBLB601”. Further, in series [3] (summary of Example 5), the therapeutic index is given as about 20. The Solubility result in series [2] is “Soluble”.
`CCCCCCCCCCCCCCCC(=O)OC[C@H](CSC[C@H](N)C(=O)NCC(=O)N[C@@H](CC(=O)O)C(=O)N1CCC[C@H]1C(=O)N[C@@H](CCCCN)C(=O)N[C@@H](Cc1c[nH]cn1)C(=O)N1CCC[C@H]1C(=O)N[C@@H](CCCCN)C(=O)N[C@@H](CO)C(=O)N[C@@H](Cc1ccccc1)C(=O)O)OC(=O)CCCCCCCCCCCCCCC` [CBLB606] (H-C(Propyl(2R-PamO,3-PamO))GDPKHPKSF-OH; C-terminus assumed) showed an NF-κB activation in series [1] of 100. The Solubility result in series [2] was “Poor”.
The compound `CCCCCCCCCCCCCCCC(=O)OCC(CSC[C@H](N)C(=O)NCC(=O)N[C@@H](CCC(N)=O)C(=O)N[C@@H](Cc1c[nH]cn1)C(=O)N[C@@H](Cc1c[nH]cn1)C(=O)N[C@@H](Cc1c[nH]cn1)C(=O)O)OC(=O)CCCCCCCCCCCCCCC` (some centres unmarked) [CBLB602] (H-C(X1)GQHHH-OH) came in with an NF-κB activation in series [1] of 0. The Solubility result in series [2] is “Poor”.
In series [1], `CCCCCCCCCCCCCCCC(=O)OCC(CSC[C@H](N)C(=O)NCC(=O)N[C@@H](CC(=O)O)C(=O)N1CCC[C@H]1C(=O)N[C@@H](CCCCN)C(=O)N[C@@H](Cc1c[nH]cn1)C(=O)N1CCC[C@H]1C(=O)N[C@@H](CCCCN)C(=O)N[C@@H](CO)C(=O)N[C@@H](Cc1ccccc1)C(=O)N[C@H](C(=O)NCC(=O)N[C@@H](Cc1c[nH]c2ccccc12)C(=O)N[C@H](C(=O)N[C@@H](C)C(=O)O)C(C)C)[C@@H](C)O)OC(=O)CCCCCCCCCCCCCCC` (some centres unmarked) [CBLB607] (H-C(X1)GDPKHPKSFTGWVA-OH) had an NF-κB activation of 2. The Solubility result in series [2] was “Poor”.
Take `CCCCCCCCCCCCCCCC(=O)OCC(CSC[C@H](N)C(=O)N[C@@H](CO)C(=O)N[C@@H](CCC(N)=O)C(=O)N[C@@H](CCSC)C(=O)N[C@@H](Cc1c[nH]cn1)C(=O)N[C@@H](Cc1c[nH]cn1)C(=O)O)OC(=O)CCCCCCCCCCCCCCC` (some centres unmarked) [CBLB605] (H-C(X1)SQMHH-OH): the NF-κB activation in series [1] came to 2. For the same compound, in series [2], the Solubility result is recorded as “Poor”.
Turning to `CCCCCCCCCCCCCCCC(=O)OC[C@H](CSC[C@H](N)C(=O)NCC(=O)N[C@@H](CCC(=O)O)C(=O)N[C@@H](CCC(=O)O)C(=O)N[C@@H](CO)C(=O)N[C@@H](CC(N)=O)C(=O)O)OC(=O)CCCCCCCCCCCCCCC` [CBLB615] (H-C(Propyl(2R-PamO,3-PamO))GEESN-OH), in series [1], the “activation … (in words, compared with CBLB601)” value is recorded as “better activators than CBLB601” and the NF-κB activation is listed as 200. Further, the “toxicity in combination with radiation” value in series [3] is “no toxicity in combination with radiation”. Besides, the “rank of radioprotective potency” value in series [3] (i.m. 24 hrs before 10 Gy TBI) is “CBLB612>CBLB614>CBLB615”. Moreover, the Solubility result in series [2] is given as “Soluble”.
